Test system: IL-1α
Test: Serum cytokine analysis, multiplex ELISA
Assay type: in vivo, mouse
Conditions: serum collected weekly; compared to Injury and mGRPs groups
Method: Samples were collected every week, starting from day of graft transplantation (day 0), 100 μl of blood from mouse tail. Blood was stored 1 h in room temperature, and overnight in +4° C. Serum was gently aspirated, and centrifuged 10 min with 2000 RPM to separate blood morphotic bodies. Purified serum was stored in −80° C. until further analysis. Multiplex ELISA 23-cytokine kit (M60009RDPD) was obtained from Bio-Rad (Bio-Plex Pro Mouse Cytokine 23-plex Assay #M60009RDPD, Hercules, Bio-Rad, CA, USA, RRID: AB_2857368) and performed according to instructions. 50 μl of diluted in sample diluent, 1:4 serum samples and diluted at range 1:10-1:20. Measurement standards were used, diluted 9 times according to the protocol and added at template plate. Vortexed beads were added to the assay 96-well plate. Plate was again washed 3 times with wash buffer, then from template plate, 50 μl of samples, standards and blank were transferred to measurement plate with multichannel pipette. Plate was sealed with tape and incubated 30 min. After this time, plate was washed 3 times. 25 μl of detection antibody was added to the wells with multichannel pipette. Plate was sealed and incubated for 30 min. and next washed 3 times using wash buffer. […] Beads were resuspended with 125 μl of assay buffer and analysis was performed with Bio Plex 200 reader.
All quantifications were performed including the manual cell counts in a blinded manner. The NeuN and Ibal were counted as positive cells in the ROI (see above) as previously reported. The number of cells was determined by unbiased counting of positive cells. […] Differences between groups were analyzed using a repeated measure ANOVA model with a fixed effect for the group, of the time and a random intercept for the mouse. In a second, more explorative, approach for each group the time when the physical activity was first measured below a certain threshold was determined. […] The clinically relevant threshold was determined according to previous observations and defined as value 0.9 for the Wire Test. […] The statistical significance at p<0.05 was then determined.

`C=CC[C@@H]1/C=C(\C)C[C@H](C)C[C@H](OC)[C@H]2O[C@@](O)(C(=O)C(=O)N3CCCC[C@H]3C(=O)O[C@H](/C(C)=C/[C@@H]3CC[C@@H](O)[C@H](OC)C3)[C@H](C)[C@@H](O)CC1=O)[C@H](C)C[C@@H]2OC` [Tac, Tacrolimus, reference compound] was tested, and the “peripheral IL-1α cytokine peak” value was “decreased IL-1α peak significantly”.

Reference: patent publication US20250170212A1, “COMPOSITIONS AND METHODS OF TREATING AMYOTROPHIC LATERAL SCLEROSIS (ALS) AND RELATED DISORDERS” (BIOINCEPT, LLC, priority 2022, published 2025)
